Source: patent US7179800B2 (priority 2002, dated 2007)
Like-named read-outs stand apart in the source and are kept apart here.

Key:
CB2 receptor = target: T1, CB2 receptor (Homo sapiens, UniProt P34972); test: CB2 binding procedure: displacement of [3H]CP-55,940 from membranes of transfected CHO cells; conditions: for CB1/CB2 (ratio of Ki): CB1 Ki divided by CB2 Ki; for Ki: means ± SEM, [3H]CP-55,940, transfected CHO cell membranes, read-out: Ki (nM) CB2; for fold decrease in CB2 affinity: relative to the comparator analog
T1 construct: expressed in transfected cells; host or cells: CHO cells, G418-selected transfected line
Procedure: Membranes for CB2 binding were obtained from CHO cells. The transfected cell line was maintained in Dublecco's Modified Eagle Medium (Gibco BRL, Grand Island, N.Y.) with 10% fetal clone II (HyClone Laboratories, Inc., Logan, Utah) plus 0.3 to 0.5 mg/ml G418 (to maintain selective pressure) under 5% CO2 at 37% C. Cells were harvested with 1 mM EDTA in phosphate-buffered saline and were centrifuged at 1000×g for 5 min at 4% C. The supernatant was saved and the P1 pellet was resuspended in centrifugation buffer. Homogenization and centrifugation were repeated twice and the combined supernatant fractions were centrifuged at 40,000×g for 30 min at 4% C. The P2 pellet was resuspended in centrifugation buffer 2 (Tris HCl, 50 mM; EDTA, 1 mM; and MgCl2, 3 mM, pH 7.4) to a protein concentration of approximately 2 mg/ml. Protein concentrations were determined by the method of Bradford (1976) using Bio-Rad Protein Assay (Bio-Rad, Richmond, Calif.) and BSA standards (fatty acid free, Sigma Chemical Co., St. Louis, Mo.). The membrane preparation was divided into amounts convenient for binding assays and frozen rapidly in dry ice and stored at −80% C.
Binding was initiated by the addition of 50 μg of quickly thawed P2 membranes to test tubes containing [^3H]CP-55,940 (final reaction concentration 0.5 nM), an appropriate concentration of unlabeled CP-55,940 or test drug, and sufficient quantity of assay buffer (50 mM Tris-HCl, 1 mM EDTA, 3 mM MgCl2, 5 mg/ml bovine serum albumin, pH 7.4) to bring the total incubation volume to 0.5 ml. Concentration of [^3H]CP-55,940 in saturation studies ranged from 50 to 10,000 pM. Nonspecific binding was determined by the addition of 1 μM unlabeled CP-55,940. CP-55,940 and all cannabinoid analogs were prepared by suspension in assay buffer from a 1 mg/ml ethanolic stock without evaporation of the ethanol (final concentration of no more than 0.4%). In competition studies, analog concentrations ranged from 0.1 nM to 10 μM. After incubation at 30% C for 1 hr, binding was terminated by the addition of 2 ml of ice-cold wash buffer (50 mM Tris-HCl and 1 mg/ml BSA) and vacuum filtration through pre-treated filters in a 12-well sampling manifold (Millipore, Bedford, Mass.). Reaction vessels were washed once with 2 ml of ice-cold wash buffer. Filters were placed into 7-ml plastic scintillation vials (RPI Corp., Mount Prospect, Ill.) with 4 ml of Budget-Solve (RPI Corp.). After shaking for 30 min, the radioactivity present was determined by liquid scintillation spectrometry. Three reaction vessels were used for each drug concentration in each assay. The results represent the combined data of three independent experiments. All assays were performed in siliconized test tubes, which were prepared by air drying (12 hr) inverted borosilicate tubes after two rinses with a 0.1% solution of AquaSil (Pierce, Rockford, Ill.). The GF/C glass-fiber filters (2.4 cm, Baxter, McGaw Park, Ill.) were pre-treated in a 0.1% solution of pH 7.4 polyethylenimine (Sigma Chemical Co.) for at least 6 hr.
In addition, multiple linear regression was used to calculate the overall degree of relationship between CB1 binding affinity and potency in the mouse measures for all active cannabinoids. […] Ki values for CB1 and CB2 binding were obtained from Scatchard displacement analysis as determined via EBDA program of the KELL software package (Biosoft, Milltown, N.J.).

Male ICR mice = test: Change in rectal temperature (RT) in mice; assay type: in vivo, mouse; conditions: Mus musculus, iv, mice, i.v.
Procedure: Male ICR mice (25–32 g), obtained from Harlan (Dublin, Va.), were housed in groups of five. All animals were kept in a temperature-controlled (20–22° C.) environment with a 12-hour light-dark cycle (lights on at 7 a.m.). Separate mice were used for testing each drug dose in the in vivo behavioral procedures. Brain tissue for binding studies was obtained from male Sprague-Dawley rats (150–200 g) purchased from Harlan Laboratories (Dublin, Va.).
Measurement of spontaneous activity in mice occurred in standard activity chambers interfaced with a Digiscan Animal Activity Monitor (Omnitech Electronics, Inc., Columbus, Ohio). A standard tail-flick apparatus and a digital thermometer (Fisher Scientific, Pittsburgh, Pa.) were used to measure antinociception and rectal temperature, respectively
Resorcinols were synthesized in our labs (Organix, Inc., Woburn, Mass.) according to the procedure specified below and were suspended in a vehicle of absolute ethanol, Emulphor-620 (Rhone-Poulenc, Inc., Princeton, N.J.), and saline in a ratio of 1:1:18. Drugs were administered to the mice intravenously (i.v.) in the tail vein at a volume of 0.1 ml/10 g.
Prior to testing in the behavioral procedures, mice were acclimated to the experimental setting (ambient temperature 22–24° C.) overnight. Pre-injection control values were determined for rectal temperature and tail-flick latency (in sec). […] Tail-flick latency was measured at 20 min post-injection. Maximum latency of 10 sec was used. Antinociception was calculated as percent of maximum possible effect {% MPE=[(test−control latency)/(10-control)]×100}. Control latencies typically ranged from 1.5 to 4.0 sec. At 30 min post-injection, rectal temperature was measured This value was expressed as the difference between control temperature (before injection) and temperatures following drug administration (° C.). Different mice (n=5–6 per dose) were tested for each dose of each compound. Each mouse was tested in each of the 3 procedures.
Based on data obtained from numerous previous studies with cannabinoids, maximal cannabinoid effects in each procedure were estimated as follows: 90% inhibition of spontaneous activity, 100% MPE in the tail flick procedure, and −6° C. change in rectal temperature. ED50's were defined as the dose at which half maximal effect occurred. For drugs that produced one or more cannabinoid effect, ED50's were calculated separately using least-squares linear regression on the linear part of the dose-effect curve for each measure in the mouse tetrad, plotted against log10 transformation of the dose. For the purposes of potency comparison, potencies were expressed as μmol/kg.

[1] = 95% confidence limits in parentheses, read-out: ED50 RT (rectal temperature)

T1 sequence (P34972 whole entry): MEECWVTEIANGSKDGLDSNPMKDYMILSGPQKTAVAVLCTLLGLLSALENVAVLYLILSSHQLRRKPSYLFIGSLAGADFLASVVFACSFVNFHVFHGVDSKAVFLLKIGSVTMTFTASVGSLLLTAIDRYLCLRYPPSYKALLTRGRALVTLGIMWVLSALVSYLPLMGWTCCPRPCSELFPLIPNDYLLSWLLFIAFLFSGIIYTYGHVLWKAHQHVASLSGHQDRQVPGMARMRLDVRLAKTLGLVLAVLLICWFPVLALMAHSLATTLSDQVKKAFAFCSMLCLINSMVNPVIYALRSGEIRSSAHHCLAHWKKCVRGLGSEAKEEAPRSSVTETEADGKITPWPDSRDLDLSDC

With `CCCCCCC(C)(C)c1cc(O)c([C@H]2CCCC(C)C2)c(O)c1` (single isomer, unassigned) [O-1826] the “CB1/CB2 (ratio of Ki)” value (CB2 receptor) was 50, the Ki (CB2 receptor) was 0.8 ± 0.05 nM and the ED50 (Male ICR mice; Table 6, read-out: R.T. ED50) was 1.16 mg/kg. For the same compound, the ED50 (Male ICR mice; [1]) was 3.6 µmol/kg.

In the case of `CCCCCCC(C)(C)c1cc(O)c(C2CCSC2)c(O)c1` (stereo not shown) [O-1661, 2-(Tetrahydrothiophen-3-yl)-5-(1′,1′-dimethylheptyl)-re-sorcinol], the “CB1/CB2 (ratio of Ki)” value (CB2 receptor) is reported as 5, the Ki (CB2 receptor) is reported as 28 ± 12 nM and the ED50 (Male ICR mice; Table 6, read-out: R.T. ED50) is reported as 7.78 mg/kg. It also gave an ED50 (Male ICR mice; [1]) of 24 µmol/kg.

In the case of `CCCCCCC(C)(C)c1cc(O)c(C2CCCC(C)C2)c(O)c1` (mixture of isomers) [O-1657, 2-(3-Methylcyclohexyl)-5-(1′,1′-dimethylheptyl)-resorcinol], the “CB1/CB2 (ratio of Ki)” value (CB2 receptor) is reported as 17, the Ki (CB2 receptor) is reported as 0.8 ± 0.04 nM and the ED50 (Male ICR mice; Table 6, read-out: R.T. ED50) is reported as 0.29 mg/kg. For the same compound, the ED50 (Male ICR mice; [1]) was 0.9 µmol/kg.

For `CCCCCCC(C)(C)c1cc(O)c(C2CCCCC2C)c(O)c1` (stereo not shown) [O-1658, 2-(2-Methylcyclohexyl)-5-(1′,1′-dimethylheptyl)-resorcinol], the “CB1/CB2 (ratio of Ki)” value (CB2 receptor) was 16, the Ki (CB2 receptor) was 1 ± 0.3 nM and the ED50 (Male ICR mice; Table 6, read-out: R.T. ED50) was 0.12 mg/kg. It also gave an ED50 (Male ICR mice; [1]) of 0.3 µmol/kg.

For `CCCCCCC(C)(C)c1cc(O)c(C2CCC(C)CC2)c(O)c1` (stereo not shown) [O-1659, 2-(4-Methylcyclohexyl)-5-(1′,1′-dimethylheptyl)-resorcinol], the “CB1/CB2 (ratio of Ki)” value (CB2 receptor) was 9, the Ki (CB2 receptor) was 5 ± 0.9 nM and the “fold decrease in CB2 affinity” value (CB2 receptor) was “about 5 fold”. It also gave an ED50 (Male ICR mice; Table 6, read-out: R.T. ED50) of 1.12 mg/kg and an ED50 (Male ICR mice; [1]) of 3.3 µmol/kg.

In the case of `CCCCCCC(C)(C)c1cc(O)c(C2CCCCC2)c(O)c1` [O-1422, Cyclohexyl-5-(1′,1′-dimethylheptyl)-resorcinol], the “CB1/CB2 (ratio of Ki)” value (CB2 receptor) is reported as 7, the Ki (CB2 receptor) is reported as 1.5 ± 0.1 nM and the ED50 (Male ICR mice; Table 6, read-out: R.T. ED50) is reported as 0.194 mg/kg. The ED50 (Male ICR mice; [1]) was 0.6 µmol/kg.

`CCCCCCC(C)(C)c1cc(O)c(C2CCSCC2)c(O)c1` [O-1425] was tested, and the “CB1/CB2 (ratio of Ki)” value (CB2 receptor) was 13, the Ki (CB2 receptor) was 12 ± 2 nM and the “fold decrease in CB2 affinity” value (CB2 receptor) was 8 fold. For the same compound, the ED50 (Male ICR mice; Table 6, read-out: R.T. ED50) was 4.53 mg/kg and the ED50 (Male ICR mice; [1]) was 13 µmol/kg.

For `CCCCCCC(C)(C)c1cc(O)c(C2C3CC4CC(C3)CC2C4)c(O)c1` (stereo not shown) [O-1660, 2-(2-Adamantyl)-5-(1′,1′-di-methylheptyl)-resorcinol], the “CB1/CB2 (ratio of Ki)” value (CB2 receptor) was 2, the Ki (CB2 receptor) was 3 ± 0.8 nM and the ED50 (Male ICR mice; Table 6, read-out: R.T. ED50) was 1.73 mg/kg. For the same compound, the ED50 (Male ICR mice; [1]) was 4.6 µmol/kg.

In the case of `CCCCCCC(C)(C)c1cc(O)c(C2=CCCCC2)c(O)c1` [O-1423], the “CB1/CB2 (ratio of Ki)” value (CB2 receptor) is reported as 3, the Ki (CB2 receptor) is reported as 28 ± 5 nM and the ED50 (Male ICR mice; Table 6, read-out: R.T. ED50) is reported as 2.94 mg/kg. For the same compound, the ED50 (Male ICR mice; [1]) was 9 µmol/kg.

In the case of `CCCC(C)(C)c1cc(O)c(C2CCCC(C)C2)c(O)c1` (stereo not shown) [O-1890, 2-(3-Methylcyclohexyl)-5-(1′,1′-dimethylbutyl)-resorcinol], the “CB1/CB2 (ratio of Ki)” value (CB2 receptor) is reported as 7, the Ki (CB2 receptor) is reported as 13 ± 1 nM and the ED50 (Male ICR mice; Table 6, read-out: R.T. ED50) is reported as 21 mg/kg. For the same compound, the ED50 (Male ICR mice; [1]) was 72 µmol/kg.

With `CCCCCCC(C)(C)c1ccc(-c2cc(C)ccc2C(C)C)c(O)c1` [O-1376, 3-1′,1′-Dimethylheptyl-6-(2-isopropyl-5-methylphenyl)phenol] the “CB1/CB2 (ratio of Ki)” value (CB2 receptor) was 11, the Ki (CB2 receptor) was 3 ± 0.4 nM and the ED50 (Male ICR mice; Table 6, read-out: R.T. ED50) was 0.822 mg/kg. It also gave an ED50 (Male ICR mice; [1]) of 2.3 µmol/kg.
